According to ChEMBL document CHEMBL4308841, “Synthesis, in vitro antiproliferative activity, and kinase inhibitory effects of pyrazole-containing diarylureas and diarylamides” (Eur J Med Chem, 2018):

How the values were obtained:
UO-31 = assay: Growth inhibition of human UO31 cells assessed as cell growth at 10 uM incubated for 48 hrs by sulforhodamine B assay relative to control; type: functional; details: UO-31, 48 h, read-out: Activity
SK-MEL-5 [1] = assay: Growth inhibition of human SK-MEL-5 cells assessed as cell growth at 100 uM incubated for 48 hrs by sulforhodamine B assay relative to control; type: functional; details: SK-MEL-5, 48 h, read-out: Activity
NCI-H23 = assay: Growth inhibition of human NCI-H23 cells assessed as cell growth at 10 uM incubated for 48 hrs by sulforhodamine B assay relative to control; type: functional; details: NCI-H23, 48 h, read-out: Activity
SF-268 = assay: Growth inhibition of human SF268 cells assessed as cell growth at 10 uM incubated for 48 hrs by sulforhodamine B assay relative to control; type: functional; details: SF-268, 48 h, read-out: Activity
M14 = assay: Growth inhibition of human M14 cells assessed as cell growth at 10 uM incubated for 48 hrs by sulforhodamine B assay relative to control; type: functional; details: M14, 48 h, read-out: Activity
KM12 = assay: Growth inhibition of human KM12 cells incubated for 48 hrs by sulforhodamine B assay; type: functional, cell-based; details: KM12, 48 h
CAKI-1 = assay: Growth inhibition of human Caki1 cells assessed as cell growth at 10 uM incubated for 48 hrs by sulforhodamine B assay relative to control; type: functional; details: CAKI-1, 48 h, read-out: Activity
LOX IMVI [2] = assay: Growth inhibition of human LOXIMVI cells assessed as cell growth at 10 uM incubated for 48 hrs by sulforhodamine B assay relative to control; type: functional; details: read-out: Activity
DU-145 = assay: Growth inhibition of human DU145 cells assessed as cell growth at 1 uM incubated for 48 hrs by sulforhodamine B assay relative to control; type: functional; details: DU-145, 48 h, read-out: Activity
MDA-MB-468 = assay: Growth inhibition of human MDA-MB-468 cells incubated for 48 hrs by sulforhodamine B assay; type: functional, cell-based; details: MDA-MB-468, 48 h
NCI-H460 = assay: Growth inhibition of human NCI-H460 cells assessed as cell growth at 10 uM incubated for 48 hrs by sulforhodamine B assay relative to control; type: functional; details: NCI-H460, 48 h, read-out: Activity
SW-620 = assay: Growth inhibition of human SW620 cells assessed as cell growth at 10 uM incubated for 48 hrs by sulforhodamine B assay relative to control; type: functional; details: SW-620, 48 h, read-out: Activity
SNB-19 = assay: Growth inhibition of human SNB19 cells assessed as cell growth at 1 uM incubated for 48 hrs by sulforhodamine B assay relative to control; type: functional; details: SNB-19, 48 h, read-out: Activity
SN12C = assay: Growth inhibition of human SN12C cells assessed as cell growth at 10 uM incubated for 48 hrs by sulforhodamine B assay relative to control; type: functional; details: read-out: Activity
HCC 2998 = assay: Growth inhibition of human HCC2998 cells assessed as cell growth at 10 uM incubated for 48 hrs by sulforhodamine B assay relative to control; type: functional; details: HCC 2998, 48 h, read-out: Activity
LOX IMVI [3] = assay: Growth inhibition of human LOXIMVI cells assessed as cell growth at 0.1 uM incubated for 48 hrs by sulforhodamine B assay relative to control; type: functional; details: read-out: Activity
SK-MEL-5 [4] = assay: Growth inhibition of human SK-MEL-5 cells assessed as cell growth at 10 uM incubated for 48 hrs by sulforhodamine B assay relative to control; type: functional; details: SK-MEL-5, 48 h, read-out: Activity
OVCAR-4 = assay: Growth inhibition of human OVCAR4 cells assessed as cell growth at 10 uM incubated for 48 hrs by sulforhodamine B assay relative to control; type: functional; details: OVCAR-4, 48 h, read-out: Activity
HCT-15 = assay: Growth inhibition of human HCT15 cells assessed as cell growth at 10 uM incubated for 48 hrs by sulforhodamine B assay relative to control; type: functional; details: HCT-15, 48 h, read-out: Activity
Hs-578T = assay: Growth inhibition of human Hs578T cells assessed as cell growth at 10 uM incubated for 48 hrs by sulforhodamine B assay relative to control; type: functional; details: read-out: Activity
CCRF-CEM = assay: Growth inhibition of human CCRF-CEM cells incubated for 48 hrs by sulforhodamine B assay; type: functional, cell-based
RXF 393 = assay: Growth inhibition of human RXF393 cells assessed as cell growth at 10 uM incubated for 48 hrs by sulforhodamine B assay relative to control; type: functional; details: RXF 393, 48 h, read-out: Activity
COLO 205 [5] = assay: Growth inhibition of human COLO205 cells assessed as cell growth at 0.1 uM incubated for 48 hrs by sulforhodamine B assay relative to control; type: functional; details: COLO 205, 48 h, read-out: Activity
HL-60(TB) = assay: Growth inhibition of human HL-60(TB) cells assessed as cell growth at 0.1 uM incubated for 48 hrs by sulforhodamine B assay relative to control; type: functional; details: HL-60, 48 h, read-out: Activity
OVCAR-8 = assay: Growth inhibition of human OVCAR8 cells assessed as cell growth at 10 uM incubated for 48 hrs by sulforhodamine B assay relative to control; type: functional; details: OVCAR-8, 48 h, read-out: Activity
MCF7 = assay: Growth inhibition of human MCF7 cells assessed as cell growth at 10 uM incubated for 48 hrs by sulforhodamine B assay relative to control; type: functional; details: MCF7, 48 h, read-out: Activity
786-0 = assay: Growth inhibition of human 786-0 cells assessed as cell growth at 10 uM incubated for 48 hrs by sulforhodamine B assay relative to control; type: functional; details: 786-0, 48 h, read-out: Activity
NCI-H522 = assay: Growth inhibition of human NCI-H522 cells assessed as cell growth at 1 uM incubated for 48 hrs by sulforhodamine B assay relative to control; type: functional; details: NCI-H522, 48 h, read-out: Activity
COLO 205 [6] = assay: Growth inhibition of human COLO205 cells assessed as cell growth at 10 uM incubated for 48 hrs by sulforhodamine B assay relative to control; type: functional; details: COLO 205, 48 h, read-out: Activity
MDA-MB-435 = assay: Growth inhibition of human MDA-MB-435 cells assessed as cell growth at 10 uM incubated for 48 hrs by sulforhodamine B assay relative to control; type: functional; details: MDA-MB-435, 48 h, read-out: Activity
Malme-3M = assay: Growth inhibition of human MALME-3M cells assessed as cell growth at 10 uM incubated for 48 hrs by sulforhodamine B assay relative to control; type: functional; details: read-out: Activity
SR = assay: Growth inhibition of human SR cells assessed as cell growth at 1 uM incubated for 48 hrs by sulforhodamine B assay relative to control; type: functional; details: read-out: Activity
[7] = read-out: LC50 (the source's name)
[8] = read-out: pLC50 (the source's name) (converted)

With COc1cc(Cl)cc(-c2nn(-c3cccc(NC(=O)Nc4cccc(C(F)(F)F)c4)c3)cc2-c2ccncc2)c1 the growth at 10 µM (UO-31) was -4.59%, the growth at 100 µM (SK-MEL-5 [1]) was -99% and the growth at 10 µM (NCI-H23) was -5.1%. For the same compound, the growth at 10 µM (SF-268) was 27.9%, the growth at 10 µM (M14) was 9.99% and the GI50 (KM12; read-out: GI50) was 0.611 µM. For the same compound, the CC50 (KM12; [7]) was greater than 100 µM, the TGI (KM12; read-out: TGI) was 47 µM and the GI50 (KM12; read-out: pGI50 (converted)) was 6.17 µM. It also gave a CC50 (KM12; [8]) greater than 100 µM, a TGI (KM12; read-out: pTGI (converted)) of 4.79 µM and a growth at 10 µM (CAKI-1) of 16.1%. For the same compound, the growth at 10 µM (LOX IMVI [2]) was 4.64%, the growth at 1 µM (DU-145) was 73% and the IC50 (MDA-MB-468) was 1.05 µM. It also gave a GI50 (MDA-MB-468; read-out: GI50) of 1.05 µM, a CC50 (MDA-MB-468; [7]) greater than 100 µM and a TGI (MDA-MB-468; read-out: TGI) of 49.9 µM. For the same compound, the GI50 (MDA-MB-468; read-out: pGI50 (converted)) was 1.05 µM, the CC50 (MDA-MB-468; [8]) was greater than 100 µM and the TGI (MDA-MB-468; read-out: pTGI (converted)) was 5.01 µM. The growth at 10 µM (NCI-H460) was -6.11%, the growth at 10 µM (SW-620) was 11.2% and the growth at 1 µM (SNB-19) was 77%. The growth at 10 µM (SN12C) was 13.9%, the growth at 10 µM (HCC 2998) was 19% and the growth at 0.1 µM (LOX IMVI [3]) was 97%. For the same compound, the growth at 10 µM (SK-MEL-5 [4]) was 5.3%, the growth at 10 µM (OVCAR-4) was 3.28% and the growth at 10 µM (HCT-15) was 7.83%. It also gave a growth at 10 µM (Hs-578T) of 23.1%, a GI50 (CCRF-CEM; read-out: GI50) of 1.2 µM and a CC50 (CCRF-CEM; [7]) greater than 100 µM. The TGI (CCRF-CEM; read-out: TGI) was 53.6 µM, the GI50 (CCRF-CEM; read-out: pGI50 (converted)) was 1.2 µM and the CC50 (CCRF-CEM; [8]) was greater than 100 µM. The TGI (CCRF-CEM; read-out: pTGI (converted)) was 5.37 µM, the growth at 10 µM (RXF 393) was 11.8% and the growth at 0.1 µM (COLO 205 [5]) was 101%. For the same compound, the growth at 0.1 µM (HL-60(TB)) was 98%, the growth at 10 µM (OVCAR-8) was -12.3% and the growth at 10 µM (MCF7) was 0.3%. For the same compound, the growth at 10 µM (786-0) was 13.2%, the growth at 1 µM (NCI-H522) was 33% and the growth at 10 µM (COLO 205 [6]) was -31.2%. It also gave a growth at 10 µM (MDA-MB-435) of -20.9%, a growth at 10 µM (Malme-3M) of -16.6% and a growth at 1 µM (SR) of 55%.
